Measured values published in article PMC11694536 (Alzheimer's & Dementia : Translational Research & Clinical …, 2024).
≈ marks a conversion by molar mass, not a printed value.

Columns and labels:
[1] = target: human ether‐à‐go‐go (hERG) channel (Homo sapiens, UniProt Q12809); experiment: hERG channel inhibition; type: biochemical
[2] = Phase 1 clinical safety and tolerability; type: in vivo, human
Solubility = type: physicochemical; conditions: phosphate buffer, pH 7.5, aqueous buffer
[3] = system: protein O‐GlcNAc modification in human embryonic kidney cells; experiment: Cellular protein O-GlcNAc increase; type: cell-based; conditions: read-out: Protein O‐GlcNAc (cellular) Relative EC50
Predicted human PK = conditions: allometry from rat, dog, monkey PK
[4] = Clinical pharmacokinetics in Phase 1 studies; type: in vivo, human
[5] = Phase 2 study PROSPECT-ALZ in early symptomatic AD; type: in vivo, human; conditions: Prospect‐ALZ Phase 2 study; full results to be published separately
[6] = MDCK passive permeability; type: in vitro ADME, canine; conditions: dog
[7] = Plasma protein binding, mice; type: in vitro ADME; conditions: mouse
[8] = SAD study, single oral doses 0.15 to 16 mg

Chain of human ether‐à‐go‐go (hERG) channel (Q12809 whole entry): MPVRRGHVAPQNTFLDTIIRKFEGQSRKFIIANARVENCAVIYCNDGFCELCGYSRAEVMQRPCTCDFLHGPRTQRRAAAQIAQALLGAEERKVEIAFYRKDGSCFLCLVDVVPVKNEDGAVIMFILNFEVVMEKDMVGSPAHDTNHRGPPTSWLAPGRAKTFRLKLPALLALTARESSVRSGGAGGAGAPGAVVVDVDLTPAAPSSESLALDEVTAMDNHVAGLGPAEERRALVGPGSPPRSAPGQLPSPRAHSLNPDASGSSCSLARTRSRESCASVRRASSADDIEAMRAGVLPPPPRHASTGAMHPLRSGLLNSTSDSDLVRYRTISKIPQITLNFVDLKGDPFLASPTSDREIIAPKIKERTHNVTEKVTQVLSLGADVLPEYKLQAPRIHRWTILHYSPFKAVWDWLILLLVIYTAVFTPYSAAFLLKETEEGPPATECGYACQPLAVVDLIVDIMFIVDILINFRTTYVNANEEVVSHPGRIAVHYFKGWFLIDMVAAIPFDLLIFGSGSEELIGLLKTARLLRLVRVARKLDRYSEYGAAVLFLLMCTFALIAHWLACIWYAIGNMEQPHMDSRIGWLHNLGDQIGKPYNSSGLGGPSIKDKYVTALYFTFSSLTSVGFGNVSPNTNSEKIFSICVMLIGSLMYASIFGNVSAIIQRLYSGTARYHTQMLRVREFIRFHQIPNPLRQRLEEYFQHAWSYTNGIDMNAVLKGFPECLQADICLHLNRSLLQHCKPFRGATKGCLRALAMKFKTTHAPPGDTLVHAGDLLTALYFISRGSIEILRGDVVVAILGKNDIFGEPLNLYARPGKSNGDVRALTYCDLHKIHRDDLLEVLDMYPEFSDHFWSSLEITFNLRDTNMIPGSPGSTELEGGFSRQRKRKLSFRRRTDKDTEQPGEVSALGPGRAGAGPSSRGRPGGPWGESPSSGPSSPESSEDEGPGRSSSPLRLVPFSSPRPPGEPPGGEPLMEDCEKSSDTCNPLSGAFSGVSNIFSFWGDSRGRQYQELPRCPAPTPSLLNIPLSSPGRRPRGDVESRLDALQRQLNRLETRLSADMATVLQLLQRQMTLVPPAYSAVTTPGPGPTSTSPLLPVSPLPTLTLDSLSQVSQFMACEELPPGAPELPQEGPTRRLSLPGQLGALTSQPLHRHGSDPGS

CC(=O)Nc1nc(F)c(CN2CC[C@H](OCc3noc(C)n3)C[C@@H]2C)s1 [ceperognastat]
IC50 [1]: 81 µM | participants reporting at least one TEAE ([2]; MD‐PET study, 1 mg QD 14 days): Four out of four | participants reporting TEAEs ([2]; SAD study, 13 of 23 ceperognastat-treated participants): 56.5% | participants reporting at least one TEAE ([2]; SD‐PET study, 8 of 16 participants, single oral dose): 50% | serious adverse events (SAEs) ([2]; all Phase 1 clinical studies): no serious adverse events | solubility (Solubility): 1360 µg/mL (≈ 3.55 mM) | EC50 [3]: 21.9 ± 7.3 nM | predicted human apparent clearance (CL/F) (Predicted human PK): 12 L/h | predicted human apparent volume of distribution (V/F) (Predicted human PK): 48 L | accumulation with QD dosing ([4]; MAD study, 1, 3, 7 mg QD for 14 days, day 1 vs day 14): minimal accumulation | CL/F [4, 8]: 12 L/h | V/F [4, 8]: 112 L | clinical benefit in early AD [5]: did not show evidence of clinical benefit | Papp [6]: 50.1 ×10⁻⁶ cm/s | fraction unbound [7]: 0.684
